From US4596806A, “7-piperidino-1,2,3,5-tetrahydroimidazo[2,1-b]-quinazolin-2-one having platelet aggregation inhibitory activity” (Daiichi Seiyaku Co., Ltd., priority 1983, dated 1986)
Where two headings read alike, the source gives them in different places.

Experiments:
[1] = test system: platelet aggregation; assay: Test of Platelet Aggregation Inhibition (in vitro), rat PRP; type: cell-based, rat (Wistar Imamichi); conditions: rat blood, read-out: Platelet Aggregation Inhibitory Activity (in vitro: IC50)
Experimental: The test was performed as follows in accordance with the method of Ashida et al, Thrombosis and Haemostasis, Vol. 40, p542 (1979).
Blood was taken by puncture from the heart of a Wistar Imamichi rat under anesthesia with pentobarbital into a syringe containing 1/10 volume of a 3.13% aqueous solution of sodium citrate dihydrate, and the citrated blood was centrifuged to obtain a platelet-rich-plasma (PRP). In the same manner, citrated blood was collected from the vein of a healthy human who had not taken aspirin or any other anti-inflammatory agent since before 10 days, followed by centrifugation to obtain PRP. 0.005 ml of each test compound was added to 0.445 ml each of these PRP samples, and the system was warmed at 30° C. for 1 minute. 0.05 ml of an aggregation inducer (ADP or collagen) was then added thereto, and platelet aggregation was determined according to the method of Born, Nature, Vol. 194, p927 (1962). The inhibitory activity of platelet aggregation was expressed in terms of 50% inhibition concentration, and the results obtained are shown in Table 2.

[2] = test system: platelet aggregation due to addition of B16BL6 cells; assay: Test of Inhibition of Platelet Aggregation Caused by Cancer Cells (in vitro), B16BL6; type: cell-based, C57BL/6 mouse
Experimental: (§1) Blood was taken from the abdominal vein of a 7-week-old C57BL/6 male mouse into a syringe containing 1/10 volume of a 3.13% aqueous solution of sodium citrate dihydrate as an anticoagulant. The thus prepared citrated blood sample was centrifuged at 230×g at room temperature for 7 minutes. The resulting supernatant fluid was used as PRP. The remainder was further centrifuged at 1,500×g at room temperature for 10 minutes, and the supernatant fluid was used as platelet-poor-plasma (PPP). Platelet count in PRP was adjusted to 450,000 per mm^3 by PPP. A 450 μl of PRP was placed in a reaction tube and subjected to centrifugation at 950 rpm at 30° C. About 1 minute later while continuing the centrifugation, 5 μl of a 200 mM calcium chloride aqueous solution was added to the system to a final concentration of […]. 30 seconds later, 5 μl of a saline solution of the compound (I) (dihydrochloride monohydrate) was added to the system, and additional 30 seconds later, 50 μl of a cell suspension containing 1×10^5 cells of B16 melamona BL6 (B16BL6) originated in a C57BL mouse or 50 μl of a cell suspension containing 1×10^6 cells of Lewis lung cancer (3LL) originated in a C57BL mouse was added thereto. Platelet aggregation of the sample system was determined from changes in transmittancy by use of an aggregometer. […]

[3] = test system: platelet aggregation due to addition of 3LL cells; assay: Test of Inhibition of Platelet Aggregation Caused by Cancer Cells (in vitro), 3LL; type: cell-based, C57BL/6 mouse
Experimental: as §1

[4] = test system: B16BL6; assay: Test of Inhibition on Pulmonary Metastasis, B16BL6; type: in vivo, C57BL/6 mouse; conditions: day 13, mean ± standard error
Experimental: 1×10^5 cells/animal of B16BL6 or 7×10^5 cells/animal of 3LL were inoculated to the tail vein of 10 to 12 6-week-old C57BL/6 male mice per group (body weight: about 18.5 g). The compound (I) (dihydrochloride monohydrate) dissolved in a physiological saline solution (J.P.) was administered to each animal at a dose of 1, 3 or 10 mg/kg orally 24 hours, 1 hour before and 1 hour after the inoculation, or intravenously immediately before the inoculation. On the 13th day from the inoculation of B16BL6 or 11th day from the inoculation of 3LL, the number of metastatic nodules in the lungs was counted using an operating microscope.

[5] = LD50 (probit method), rat; conditions: in vivo, iv
[6] = test system: pancreatic juice secretion; assay: Test of Stimulation on Pancreatic Juice Secretion in Dog; type: in vivo, dog (adult mongrel); conditions: for total output amount of bicarbonate ions as compared with the control: 30 minutes after administration; for Pancreatic Juice Secretion, Total: total 0-60 min; for total volume of pancreatic juice as compared with the control (100%): total after 60 minutes
Experimental: Adult mongrel dogs (male and female) having a body weight of 11.8 to 15.8 Kg were anesthetized with Nembutal and Phenobal and a cannula was inserted into pancreatic duct. A solution of Compound (I) dissolved in a physiological saline solution was administered intravenously from femoral vein at a dose of 0.5 ml/Kg. The volume of pancreatic juice was determined in a polyethylene tube connected to the cannula, and the bicarbonate ion concentration in the pancreatic juice was determined by neutralization titration. As a control, a physiological saline solution was administered intravenously.

[7] = test system: Water Immersion and Immobilization-induced Gastric Ulcer; assay: Effect on Water Immersion and Immobilization-induced Gastric Ulcer in Rats; type: in vivo, rat (Donryu male); conditions: p.o.
Experimental: Donryu male rats having a body weight of 352 to 414 g were subjected to the stress-induced gastric ulceration test by water-immersion and immobilization [Takagi and Okabe, Japan J. Pharmacol., 18, 9-18 (1968)] at a water temperature of 20° to 22° C. for 7 hours. Compound (I) was administered orally in the form of a suspension in a 0.5% aqueous CMC solution at a dose of 5 ml/Kg 30 minutes before loading the stress. After the test period, the rats were sacrificed and the hyperemic area and the erosious area on the stomach inside wall were measured to determine % inhibition of the ulcer.

## O=C1CN2Cc3cc(N4CCCCC4)ccc3N=C2N1 [Compound (I), 7-piperidino-1,2,3,5-tetrahydroimidazo[2,1-b]quinazolin-2-one]
[1]; inducer ADP
  IC50: 3800 nM
[1]; inducer collagen
  IC50: 330 nM
[2]; 0.3 μM
  inhibition of platelet aggregation due to addition of B16BL6 cells: partially inhibited
[2]; final concentration of 3 μM or more
  inhibition of platelet aggregation due to addition of B16BL6 cells: completely inhibited
[3]; 0.3 μM
  inhibition of platelet aggregation due to addition of 3LL cells: partially inhibited
[3]; final concentration of 1 μM or more
  inhibition of platelet aggregation due to addition of 3LL cells: completely inhibited
[4]; 1 mg/kg
  Number of Metastatic Nodules in the Lungs: 5.5 ± 1.1
[4]; 3 mg/kg
  Number of Metastatic Nodules in the Lungs: 5.3 ± 1.1
[4]; 10 mg/kg
  Number of Metastatic Nodules in the Lungs: 6.4 ± 1.1
[5]; female Wistar rat
  LD50: 219 mg/kg
[5]; male Wistar rat
  LD50: 232 mg/kg
[6]; 300 μg/Kg
  total output amount of bicarbonate ions as compared with the control: 198%
[6]; 1000 μg/Kg
  bicarbonate ion concentration in pancreatic juice as compared with the control: 266%
  total output amount of bicarbonate ions as compared with the control: 674%
[6]; i.v. 100 μg/Kg
  bicarbonate ion concentration in pancreatic juice as compared with the control: 109%
  total output amount of bicarbonate ions as compared with the control: 116%
[6]; i.v. 100 μg/kg
  Amount of Bicarbonate Ion Secretion: 44.6 ± 9.3 µEq/h
  Bicarbonate Ion Concentration: 44.5 ± 6.1 mEq/l
  activity on the pancreatic juice secretion (in words): did not show any significant activity
  Pancreatic Juice Secretion, Total: 950 ± 185 µL
[6]; i.v. 100 μg/kg, 0-15 min
  Pancreatic Juice Secretion: 323 ± 81 µL
[6]; i.v. 100 μg/kg, 15-30 min
  Pancreatic Juice Secretion: 223 ± 45 µL
[6]; i.v. 100 μg/kg, 30-45 min
  Pancreatic Juice Secretion: 178 ± 31 µL
[6]; i.v. 100 μg/kg, 45-60 min
  Pancreatic Juice Secretion: 226 ± 48 µL
[6]; i.v. 300 μg/Kg
  bicarbonate ion concentration in pancreatic juice as compared with the control: 130%
  total volume of pancreatic juice as compared with the control (100%): 161%
[6]; i.v. 300 μg/kg
  Amount of Bicarbonate Ion Secretion: 65.9 ± 9.6 µEq/h
  Bicarbonate Ion Concentration: 45.8 ± 2.1 mEq/l
  Pancreatic Juice Secretion, Total: 1444 ± 214 µL
[6]; i.v. 300 μg/kg, 0-15 min
  Pancreatic Juice Secretion: 521 ± 112 µL
[6]; i.v. 300 μg/kg, 15-30 min
  Pancreatic Juice Secretion: 321 ± 53 µL
[6]; i.v. 300 μg/kg, 30-45 min
  Pancreatic Juice Secretion: 291 ± 44 µL
[6]; i.v. 300 μg/kg, 45-60 min
  Pancreatic Juice Secretion: 310 ± 31 µL
[6]; i.v. 300 μg/kg, after 15 minutes
  pancreatic juice secretion as compared with the control (100%): 214%
[6]; i.v. 1000 μg/Kg
  total volume of pancreatic juice as compared with the control (100%): 254%
[6]; i.v. 1000 μg/kg
  Amount of Bicarbonate Ion Secretion: 224 ± 24.7 µEq/h
  Bicarbonate Ion Concentration: 79.8 ± 5.6 mEq/l
  Pancreatic Juice Secretion, Total: 2805 ± 225 µL
[6]; i.v. 1000 μg/kg, 0-15 min
  Pancreatic Juice Secretion: 1363 ± 117 µL
[6]; i.v. 1000 μg/kg, 15-30 min
  Pancreatic Juice Secretion: 573 ± 69 µL
[6]; i.v. 1000 μg/kg, 30-45 min
  Pancreatic Juice Secretion: 455 ± 100 µL
[6]; i.v. 1000 μg/kg, 45-60 min
  Pancreatic Juice Secretion: 414 ± 112 µL
[6]; i.v. 1000 μg/kg, after 15 minutes
  pancreatic juice secretion as compared with the control (100%): 440%
[6]; i.v. 1000 μg/kg, after 30 minutes
  pancreatic juice secretion as compared with the control (100%): 202%
[7]; 30 mg/kg
  Ulcer Index, Erosious Area: 17.8 ± 5.7 mm
  Ulcer Index, Erosious Area, Inhibition: 32%
  Ulcer Index, Hyperemic Area: 19.4 ± 9.0 mm
  Ulcer Index, Hyperemic Area, Inhibition: 69%
[7]; 100 mg/kg
  Ulcer Index, Erosious Area: 1.3 ± 0.8 mm
  Ulcer Index, Erosious Area, Inhibition: 95%
  Ulcer Index, Hyperemic Area: 0 mm
  Ulcer Index, Hyperemic Area, Inhibition: 100%
[7]; 300 mg/kg
  Ulcer Index, Erosious Area: 2.6 ± 1.3 mm
  Ulcer Index, Erosious Area, Inhibition: 90%
  Ulcer Index, Hyperemic Area: 0 mm
  Ulcer Index, Hyperemic Area, Inhibition: 100%
